Like-named read-outs stand apart in the source and are kept apart here.
Key:
[1] = system: hypertensive MHS rats; assay: systolic blood pressure and heart rate in hypertensive MHS rats (indirect tail-cuff method); type: in vivo, rat (MHS); details: 20 mg/Kg/os daily for ten days in METHOCEL 0.5% w/v, 7 rats; for SBP (systolic blood pressure): controls 171 ± 4.5; for HR (heart rate): controls 384 ± 11.0
Procedure: The ability of these compounds to lower blood pressure in adult hypertensive MHS rats was tested by the following method: systolic blood pressure (SBP) and heart rate (HR) were measured by an indirect tail-cuff method in three-month old hypertensive MHS rats before beginning treatment (basal values). The rats were then subdivided in two groups of 7 animals each, one receiving the compound and the other, the control group, receiving only the vehicle. The compound, suspended in METHOCEL® 0.5% (w/v), for ten days, was administered daily by mouth. SBP and HR were measured daily 6 and 24 hours after the treatment. When ten-day treatment washout had been under way for at least two days, whether the treatment maintains SBP low or re-establish the basal values was verified. The affinity and the inhibitory activity of some ethers and of the reference compound (II-a) in the two tests are shown in the following table: […]

[2] = biological target: T1, purified Na^+,K^+ -ATPase (Canis lupus familiaris, UniProt P50997); assay: inhibition of the activity of the purified Na+,K+-ATPase measured as % of hydrolysis of 32P-ATP; type: biochemical
T1 construct: from tissue; mammalian kidney outer medulla by the cited Jorgensen 1974 method (own knowledge)
Excerpt: (§1) To test the affinity for the receptor site of the Na^+,K^+ -ATPase and the agonist or antagonist activity on the enzyme, the following tests were used: a) displacement of the specific ^3 H-ouabain binding from the Na^+,K^+ -ATPase receptor purified according to Jorghensen (Jorghensen P., BBA, 1974, 356, 36) and Erdmann (Erdmann E. et al., Arzneim. Forsh., 1984, 34, 1314); b) inhibition of the activity of the purified Na^+,K^+ -ATPase measured as % of hydrolysis of ^32 P-ATP in presence and in absence of the tested compound (Mall F. et al., Biochem. Pharmacol., 1984, 33, 47).

[3] = biological target: T2, Na^+,K^+ -ATPase receptor (Canis lupus familiaris, UniProt P50997); assay: displacement of the specific 3H-ouabain binding from the purified Na+,K+-ATPase receptor
T2 construct: from tissue; mammalian kidney outer medulla by the cited Jorgensen 1974 method (own knowledge)
Excerpt: as §1

[4] = hydrolysis of 32P-ATP, purified Na+,K+-ATPase, read-out: Inhibitory Activity log IC50 (converted)
[5] = displacement of specific 3H-ouabain binding, purified Na+,K+-ATPase, read-out: Binding 3H-Ouab. Displacement log IC50 (converted)

| Structure (SMILES) | SBP (systolic blood pressure) [1] | HR (heart rate) [1] | IC50 [2, 4] | IC50 [3] | IC50 [2] | IC50 [3, 5] |
| --- | --- | --- | --- | --- | --- | --- |
| C[C@]12CC[C@H](OCCCN)C[C@H]1CC[C@@H]1[C@@H]2CC[C@]2(C)[C@@H](c3ccoc3)CC[C@]12O [Comp. I-ab, 3β-(3-Aminopropoxy)-17β-(3-furyl)-5β-androstan-14β-ol] | 157 ± 4.9 mm Hg | 371 ± 10.0 beats/min. | 1260 nM | 126 nM | – | – |
| C[C@]12CC[C@H](OCCCN3CCCC3)C[C@H]1CC[C@@H]1[C@@H]2CC[C@]2(C)[C@@H](c3ccoc3)CC[C@]12O [Comp. I-ae] | 154 ± 6.3 mm Hg | 395 ± 8.7 beats/min. | – | 126 nM | 794 nM | – |
| C[C@]12CC[C@H](OCCNCCN3CCCC3)C[C@H]1CC[C@@H]1[C@@H]2CC[C@]2(C)[C@@H](c3ccoc3)CC[C@]12O [Comp. I-ag, 3β-(2-(2-(1-Pyrrolidinyl)ethylamino)ethoxy)-17β-(3-furyl)-5β-androstan-14β-ol] | 162 ± 5.0 mm Hg | 377 ± 9.0 beats/min. | – | 158 nM | 1580 nM | – |
| C[C@]12CC[C@H](OCCSCCN3CCCC3)C[C@H]1CC[C@@H]1[C@@H]2CC[C@]2(C)[C@@H](c3ccoc3)CC[C@]12O [Comp. I-ai, 3β-(2-(2-(1-Pyrrolidinyl)ethylthio)ethoxy)-17β-(3-furyl)-5β-androstan-14β-ol] | 160 ± 4.7 mm Hg | 390 ± 8.9 beats/min. | – | 200 nM | 631 nM | – |
| C[C@]12CC[C@H](OCCNC(=N)N)C[C@H]1CC[C@@H]1[C@@H]2CC[C@]2(C)[C@@H](c3ccoc3)CC[C@]12O [Comp. I-al, 3β-(2-Guanidinoethoxy)-17β-(3-furyl)-5β-androstan-14β-ol nitrate] | 159 ± 5.0 mm Hg | 393 ± 9.0 beats/min. | – | 126 nM | 1580 nM | – |
| C[C@]12CC[C@H](SCCN)C[C@H]1CC[C@@H]1[C@@H]2CC[C@]2(C)[C@@H](c3ccoc3)CC[C@]12O [Comp. I-bv, 3β-(2-Aminoethylthio)-17β-(3-furyl)-5β-androstan-14β-oloxalate] | 161 ± 4.2 mm Hg | 384 ± 6.7 beats/min. | – | – | 2000 nM | 501 nM |
| C[C@]12CC[C@H](SCCN3CCCC3)C[C@H]1CC[C@@H]1[C@@H]2CC[C@]2(C)[C@@H](c3ccoc3)CC[C@]12O [Comp. I-bw, 3β-(2-(1-Pyrrolidinyl)ethylthio)-17β-(3-furyl)-5β-androstan-14β-ol] | 157 ± 4.3 mm Hg | 392 ± 10.0 beats/min. | 3980 nM | – | – | 794 nM |
| C[C@]12CC[C@H](SCCOCCN3CCCC3)C[C@H]1CC[C@@H]1[C@@H]2CC[C@]2(C)[C@@H](c3ccoc3)CC[C@]12O [Comp. I-by, 3β-(2-(2-(1-Pyrrolidinyl)ethoxy)ethylthio)-17β-(3-furyl)-5β-androstan-14β-ol] | 154 ± 6.3 mm Hg | 395 ± 8.7 beats/min. | – | 158 nM | 1000 nM | – |
| C[C@]12CC[C@H](O)C[C@H]1CC[C@@H]1[C@@H]2CC[C@]2(C)[C@@H](c3ccoc3)CC[C@]12O [Comp. II-a, 17β-(3-furyl)-5β-androstane-3β,14β-diol, reference compound] | 175 ± 4.1 mm Hg | 382 ± 9.0 beats/min. | – | – | – | – |

Reference: patent US5593982A, “Cyclopentanperhydrophenanthren-17β-(3-furyl)-3-derivatives and pharmaceutical compositions comprising same for the treatment of cardiovascular disorders” (Sigma-Tau Industrie Farmaceutiche Riunite S.p.A., priority 1992, dated 1997)
